Data as given in article PMC11443414 (RSC Advances, 2024).
Structures can show the parent of a compound that is named as a salt.

How the values were obtained:
[1] = target: T1, urease subunit gamma (UreA) (Staphylococcus aureus, UniProt Q6GEE6); type: binding
T1 sequence (Q6GEE6 1-100): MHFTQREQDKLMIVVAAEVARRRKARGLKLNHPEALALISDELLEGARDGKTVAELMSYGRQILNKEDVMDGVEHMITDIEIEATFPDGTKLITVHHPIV

[2] = target: T1, urease subunit gamma (UreA); experiment: DSF titration; type: binding

With `CCOc1ccc(/C=C2\NCCc3cc(OCC)c(OCC)cc32)cc1OCC` [compound 2, Drotaverine HCl] the “STD-NMR (individual, group epitope mapping); DSF Tm shift” value [1] was “Its GEM analysis indicated that CH2-18 received the highest saturation from the protein”.
For `O=C(O)c1cccnc1` [compound 11, Nicotinic acid], the Kd [2] was 70 mM.
